According to patent US20240336604A1 (THE UNITED STATES OF AMERICA, AS REPRESENTED BY THE …, priority 2021, published 2024):

Tests used:
Format in all cases: cell-based
D3 DAR [1] = biological target: T1, D3 DAR (Homo sapiens, UniProt P35462); assay: Functional curve-shift assays using the DiscoverX β-arrestin recruitment assay; set-up: host or cells: CHO
From the text: To further assess the mechanism of action of Cmp. […] 1 (FIGS. 4B and 4D). […] Average curves are shown (mean±SEM from at least 3 experiments each performed in triplicate). […] In contrast, increasing concentrations of Cmp.
1. FIG. 6A-C panels show concentration-response curves of dopamine in the absence or presence of increasing concentrations of compound. Cmp. […] 18 (FIG. 6A), Cmp. 5 (FIG. 6B), and Cmp. 17 (FIG. 6C), respectively. Average curves are shown (mean±SEM from at least 3 experiments, each performed in triplicate).
A D3 DAR β-arrestin cell line from DiscoverX (Fremont, CA) was used as described in the protocol below (Table 2). A CHO cell line engineered to overexpress the D3 DAR fused with a small 42-amino acid fragment of β-galactosidase called ProLink™ and a fusion protein consisting of β-arrestin and a larger N-terminal deletion mutant of β-galactosidase was used (DiscoverX catalogue number 93-0579C2). When the D3 DAR is activated by dopamine, it stimulates binding of β-arrestin to ProLink-tagged D3 DARs, and the two complementary parts of β-galactosidase form a functional enzyme. When substrate (PathHunter® Detection reagent, DiscoverX 93-0001) is added, β-galactosidase hydrolyzes it and generates a chemiluminescent signal.

D3 DAR [2] = biological target: T1, D3 DAR; assay: Go BRET activation assay, D3 DAR; settings: EC80 DA (30 nM)
Method: (§1) Briefly, HEK293T cells transiently expressing either the D2 DAR or D3 DAR and GαoA-Rluc8, untagged-β1, and mVenus-γ2 were harvested with EBSS, plated in 96-well white plates at 20,000 cells/well in DPBS and incubated at RT for 45 min. […] BRET signal was determined by quantifying and calculating the ratio of the light emitted by mVenus (525 nm) over that emitted by RLuc8 (485 nm) using a PHERAstar FSX Microplate Reader (BMG Labtech).

D2 DAR [3] = biological target: T2, D2 DAR (Homo sapiens, UniProt P14416); assay: cAMP CAMYEL biosensor assay, D2 DAR; settings: FIG. 3C right
Method: as §1, with “cAMP CAMYEL biosensor assay: HEK293” for “Briefly, HEK293T”, “expressing” for “expressing either”, “the CAMYEL cAMP biosensor (yellow fluorescence protein-Epac-Rluc)” for “GαoA-Rluc8, untagged-β1, and mVenus-γ2”, “room temperature” for “RT”

[4] = tested on: other dopamine receptor subtypes; assay: DiscoverX β-arrestin assay, other dopamine receptors; settings: FIG. 1A
From the text: For a secondary-screen and selectivity assays, DAR PathHunter®-arrestin GPCR cell lines from DiscoverX (Fremont, CA) were used. In the D2 DAR PathHunter®-arrestin GPCR cell line, the D2 DAR is overexpressed and fused with a small 42-amino acid fragment of β-galactosidase called ProLink™ on a CHO cellular background expressing a fusion protein of β-arrestin and a larger N-terminal deletion mutant of β-galactosidase (“enzyme acceptor”). When the D2 DAR is activated by dopamine, it stimulates binding of β-arrestin to the ProLink-tagged DAR and the two complementary parts of β-galactosidase form a functional enzyme. When substrate (PathHunter™ Detection reagent) is added, β-galactosidase hydrolyzes it and generates a chemiluminescent signal.

D2 DAR [5] = biological target: T2, D2 DAR; assay: Go BRET activation assay, D2 DAR; settings: FIG. 3B right
Method: as §1

D2 DAR [6] = biological target: T2, D2 DAR; assay: ERK1/2 phosphorylation assay, D2 DAR; set-up: host or cells: CHO; settings: FIG. 3D right
Method: ERK1/2 Phosphorylation assay: ERK1/2 phosphorylation was measured using the Alphascreen SureFire Ultra ERK kit (PerkinElmer, Waltham, USA). CHO-K1 cells stably expressing either the D2 DAR or D3 DAR were seeded into 384-well small volume white plates at a density of 40,000 cells/well in serum-free Ham's F12 media overnight. […] The plate was shaken for 10 min at RT, followed by the addition of Surefire activation buffer, Surefire reaction buffer, Alphascreen acceptor beads, and Alphascreen donor beads in ratios specified by the manufacturer. The plate was incubated in the dark for 2 h, then read using a PHERAstar FSX Microplate Reader (BMG Labtech).

D3 DAR [7] = biological target: T1, D3 DAR; assay: DiscoverX D3 DAR β-arrestin recruitment assay; set-up: host or cells: CHO
Procedure, shortened: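 CHO cells overexpressing D3 DAR fused to a ProLink β-galactosidase fragment plus a β-arrestin–β-galactosidase deletion mutant fusion. Receptor activation drives β-arrestin recruitment and enzyme complementation. Chemiluminescent read-out after detection substrate is added.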

5-HT6 receptor = 5-HT6 receptor (Homo sapiens, UniProt P50406); assay: 5-HT6 cAMP recruitment assay; settings: read-out: IC50, antagonism of the 5-HT6 receptor
Chain of 5-HT6 receptor (P50406 whole entry): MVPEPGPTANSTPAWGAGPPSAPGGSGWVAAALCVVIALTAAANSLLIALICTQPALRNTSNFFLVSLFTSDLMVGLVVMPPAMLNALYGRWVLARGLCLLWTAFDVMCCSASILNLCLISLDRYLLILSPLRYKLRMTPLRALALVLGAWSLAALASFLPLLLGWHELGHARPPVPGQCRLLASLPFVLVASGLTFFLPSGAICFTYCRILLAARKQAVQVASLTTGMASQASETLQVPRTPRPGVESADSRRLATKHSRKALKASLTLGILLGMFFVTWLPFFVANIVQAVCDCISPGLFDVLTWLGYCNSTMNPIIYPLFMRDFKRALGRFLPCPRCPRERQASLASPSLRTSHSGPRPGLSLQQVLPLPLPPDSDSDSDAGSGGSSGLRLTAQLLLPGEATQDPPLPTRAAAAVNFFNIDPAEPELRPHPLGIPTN

T1 sequence (P35462 whole entry): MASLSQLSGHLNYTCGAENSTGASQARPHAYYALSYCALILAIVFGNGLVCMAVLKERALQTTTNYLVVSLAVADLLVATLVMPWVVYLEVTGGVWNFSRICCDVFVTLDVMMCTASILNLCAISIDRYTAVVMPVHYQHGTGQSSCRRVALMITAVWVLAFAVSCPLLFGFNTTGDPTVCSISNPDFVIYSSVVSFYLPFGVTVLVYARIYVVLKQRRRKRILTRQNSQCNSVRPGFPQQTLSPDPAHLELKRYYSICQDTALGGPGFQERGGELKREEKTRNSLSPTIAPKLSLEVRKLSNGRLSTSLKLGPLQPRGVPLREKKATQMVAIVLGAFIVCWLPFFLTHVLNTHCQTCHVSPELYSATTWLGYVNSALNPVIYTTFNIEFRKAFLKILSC
T2 sequence (P14416 whole entry): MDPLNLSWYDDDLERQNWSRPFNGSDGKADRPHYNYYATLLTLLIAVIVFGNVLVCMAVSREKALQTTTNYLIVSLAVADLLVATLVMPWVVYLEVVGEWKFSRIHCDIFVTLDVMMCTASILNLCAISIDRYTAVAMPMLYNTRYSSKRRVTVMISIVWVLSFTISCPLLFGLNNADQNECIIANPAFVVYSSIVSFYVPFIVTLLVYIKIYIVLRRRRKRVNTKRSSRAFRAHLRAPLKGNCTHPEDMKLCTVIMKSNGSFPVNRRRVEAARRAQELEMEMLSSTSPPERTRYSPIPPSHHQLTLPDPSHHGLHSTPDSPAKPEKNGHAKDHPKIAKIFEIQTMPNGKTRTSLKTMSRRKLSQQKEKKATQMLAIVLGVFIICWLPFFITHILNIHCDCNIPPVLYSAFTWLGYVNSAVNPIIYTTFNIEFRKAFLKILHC

Cc1ccc(NS(=O)(=O)c2c(C)[nH]c(C)c2C(=O)N2CCCC2)cc1Cl [Cmp. 1]
IC50 (D3 DAR [1]; agonist dopamine, read-out: Functional IC50 for decreasing the Emax of dopamine): 17 µM
IC50 (D3 DAR [1]; agonist pramipexole, read-out: Functional IC50 for decreasing the Emax of pramipexole): 14 µM
mode of antagonism in curve-shift assays (D3 DAR [1]; versus agonist (dopamine, pramipexole)): behaves in a non-competitive manner
Emax (D3 DAR [2]; 5 min, read-out: D3 Go BRET Imax): > 100%
IC50 (D3 DAR [2]): 10 to 50 µM
antagonist activity at the D2 DAR, cAMP CAMYEL (D2 DAR [3]): lacked antagonist activity
activity at other dopamine receptor subtypes [4]: no activity
antagonist activity at the D2 DAR, Go activation (D2 DAR [5]): lacked antagonist activity
antagonist activity at the D2 DAR, pERK (D2 DAR [6]): lacked antagonist activity
IC50 (D3 DAR [7]; DiscoverX β-arrestin assay, FIG. 1A, 2A, read-out: IC50, inhibition of dopamine-stimulated β-arrestin recruitment to the D3 DAR): ~16 µM
IC50 (D3 DAR [7]; EC80 concentration of DA (30 nM), read-out: D3 DAR IC50): 10 to 50 µM
Emax (D3 DAR [7]; Imax=maximum inhibition, EC80 DA (30 nM)): 80 to 100%
IC50 (5-HT6 receptor): > 50 µM
